In assay [1] the test system is rice sheath blight fungus (Thanatephorus cucumeris). As to the kind of experiment: Test Example 10: control effect against rice sheath blight by water surface application (flowable formulation). Conditions: flowable 1,000 ppm, 1 mL dripped in paddy water, inoculated after 1 week, 7 days after inoculation.
Assay [2] has the same test system. As to the kind of experiment: Test Example 6: control effect against rice sheath blight by box treatment (flowable formulation). Conditions: flowable 5,000 ppm, 50 mL irrigation of nursery box, paddy rice; inoculated after 3 weeks; 7 days after inoculation.
In assay [3] the test system is rice blast fungus (Pyricularia grisea). It is filed as in vivo. The settings on record: flowable 5,000 ppm, 50 mL irrigation of nursery box, paddy rice; inoculated after 3 weeks; 7 days after inoculation.
For assay [4] the test system is unchanged. It is filed as in vivo. The settings on record: 5 g of granule on nursery box, paddy rice; inoculated after 3 weeks; 7 days after inoculation.
For assay [5], the system named is rice sheath blight fungus (Thanatephorus cucumeris). The assay is described as follows: Test Example 8: control effect against rice sheath blight by box treatment (granule). Conditions: 5 g of granule on nursery box, paddy rice; inoculated after 3 weeks; 7 days after inoculation.
Excerpt: Control value (%)=[1−(lesion height in sprayed plot/lesion height in unsprayed plot)]×100 (d)
From the top of a nursery box, 5 g of a granule prepared according to Formulation Example-4 was applied to a 2.5-leaf-stage paddy rice (variety: Asahi) seedling raised using a nursery box ( 1/10 the area of standard nursery box in size: 12 cm×15 cm×height 4 cm) within a greenhouse. The formulation-treated paddy rice seedling was immediately transplanted at 5 seedlings/pot into a pot ( 1/10000 are in size) filled with paddy soil (flooded). After growing for 3 weeks within a greenhouse, a culture of rice sheath blight fungus (Thanatephorus cucumeris) grown in advance on a rice straw medium was inoculated into the root of the formulation-treated paddy rice, and disease development was promoted in an artificial weather chamber at 26° C. (relative humidity=100%). Seven days after the inoculation, the rice sheath blight lesion height (height from the root) was examined, and the control value (%) was calculated according to formula (d). […] This test was performed with three replications, each consisting of one plot and one pot, per one formulation plot, and its average evaluation value of control effect was determined.
The subject of assay [6] is rice blast fungus (Pyricularia grisea). It counts as in vivo. Conditions: flowable 1,000 ppm, 1 mL dripped in paddy water, inoculated after 1 week, 7 days after inoculation.
Assay [7] concerns barley powdery mildew fungus (Erysiphe graminis). The assay is described as follows: Test Example 2: control effect against barley powdery mildew by foliage application. It is filed as in vivo. Conditions: wettable powder diluted to 100 ppm, 10 mL per pot foliage spray on barley; inoculated day after; 7 days after inoculation.

Molecules are shown by their SMILES. Like-named read-outs stand apart in the source and are kept apart here.

With `Cc1nc(C(F)F)c(C(=O)N(C(=O)c2cccnc2C(F)F)c2cccc3c2C(C)OC3(C)C)s1` (stereo not shown) [27-36], the “evaluation value of control effect (from control value, lesion height)” value in assay [1], in assay [2] and in assay [5] was 5 in each case. Also, the “evaluation value of control effect (from control value, number of lesions)” value in assay [3], in assay [4] and in assay [6] was 5 each time.
On to `Cc1nc(C(F)F)c(C(=O)N(C(=O)c2snc(Cl)c2Cl)c2ccccc2C(C)CC(C)C)s1` (stereo not shown) [7-38, N-(3,4-Dichloroisothiazole-5-carbonyl)-4-(difluoromethyl)-N-{2-(1,3-dimethylbutyl)phenyl}-2-methyl-thiazole-5-carboxamide], for which the “evaluation value of control effect (from control value, lesion height)” value in assay [1], in assay [2] and in assay [5] was 5 throughout. Moreover, the “evaluation value of control effect (from control value, lesion area percentage)” value in assay [7] is 5. Further, the “evaluation value of control effect (from control value, number of lesions)” value in assay [3], in assay [4] and in assay [6] was 5 throughout.
With `CC(C)CC(C)c1sccc1N(C(=O)c1cccnc1C(F)F)C(=O)c1snc(Cl)c1Cl` (stereo not shown) [18-2], the “evaluation value of control effect (from control value, lesion height)” value in assay [1], in assay [2] and in assay [5] was 5 throughout. Besides, the “evaluation value of control effect (from control value, lesion area percentage)” value in assay [7] was 5. Also, the “evaluation value of control effect (from control value, number of lesions)” value in assay [3], in assay [4] and in assay [6] was 5 in each case.
Turning to `CC(C)CC(C)c1ccccc1N(C(=O)c1cc(F)nc(F)c1)C(=O)c1cn(C)nc1C(F)F` (stereo not shown) [1-380], the “evaluation value of control effect (from control value, lesion height)” value in assay [1], in assay [2] and in assay [5] was 5 throughout. For the same compound, the “evaluation value of control effect (from control value, lesion area percentage)” value in assay [7] was determined as 5. Also, the “evaluation value of control effect (from control value, number of lesions)” value in assay [3], in assay [4] and in assay [6] was 5 each time.
`Cc1nc(C(F)F)c(C(=O)N(C(=O)c2cccc3nnsc23)c2cccc3c2C(C)OC3(C)C)s1` (stereo not shown) [26-62]: the “evaluation value of control effect (from control value, lesion height)” value in assay [1], in assay [2] and in assay [5] was 5 in each case. Also, the “evaluation value of control effect (from control value, lesion area percentage)” value in assay [7] was found to be 4. Further, the “evaluation value of control effect (from control value, number of lesions)” value in assay [3], in assay [4] and in assay [6] was 5 throughout.
On to `Cc1nn(C)c(Cl)c1C(=O)N(C(=O)c1snnc1C(F)F)c1cccc2c1C(C)OC2(C)C` (stereo not shown) [25-117], for which the “evaluation value of control effect (from control value, lesion height)” value in assay [1], in assay [2] and in assay [5] was 5 in each case. For the same compound, the “evaluation value of control effect (from control value, number of lesions)” value in assay [3], in assay [4] and in assay [6] was 5 in each case.
`CC(C)CC(C)c1ccccc1N(C(=O)c1cccnc1C(F)(F)F)C(=O)c1snc(Cl)c1Cl` (stereo not shown) [13-1]: in assay [7], the “evaluation value of control effect (from control value, lesion area percentage)” value was 5. Also, the “evaluation value of control effect (from control value, number of lesions)” value in assay [3], in assay [4] and in assay [6] was 5 in each case.
For `CC(C)CC(C)c1sccc1N(C(=O)c1cn(C)nc1C(F)(F)F)C(=O)c1snc(Cl)c1Cl` (stereo not shown) [5-1, 3,4-Dichloro-N-{2-(1,3-dimethylbutyl)-3-thienyl}-N-{1-methyl-3-(trifluoromethyl)pyrazole-4-carbonyl}isothiazole-5-carboxamide], in assay [7], the “evaluation value of control effect (from control value, lesion area percentage)” value was found to be 5. Also, the “evaluation value of control effect (from control value, number of lesions)” value in assay [3], in assay [4] and in assay [6] was 5 in each case.
Take `Cc1nc(C(F)F)c(C(=O)N(C(=O)c2cc(Cl)c(Cl)s2)c2cccc3c2C(C)OC3(C)C)s1` (stereo not shown) [26-90]: the “evaluation value of control effect (from control value, lesion height)” value in assay [1], in assay [2] and in assay [5] was 5 throughout. Besides, the “evaluation value of control effect (from control value, number of lesions)” value in assay [3], in assay [4] and in assay [6] was 5 throughout.
Consider `CC(C)CC(C)c1ccccc1N(C(=O)c1cccnc1F)C(=O)c1snc(Cl)c1Cl` (stereo not shown) [13-51], for which the “evaluation value of control effect (from control value, lesion area percentage)” value in assay [7] is reported as 4. Also, the “evaluation value of control effect (from control value, number of lesions)” value in assay [3], in assay [4] and in assay [6] was 5 throughout.
Turning to `Cc1nnsc1C(=O)N(C(=O)c1c(C)nn(C)c1F)c1ccccc1C(C)CC(C)C` (stereo not shown) [1-158], the “evaluation value of control effect (from control value, lesion area percentage)” value in assay [7] was found to be 4. Besides, the “evaluation value of control effect (from control value, number of lesions)” value in assay [3], in assay [4] and in assay [6] was 5 in each case.
For `CC1CC(C)(C)c2cccc(N(C(=O)c3cn(C)nc3C(F)F)C(=O)c3scnc3C(F)F)c21` (stereo not shown) [25-109], the “evaluation value of control effect (from control value, lesion area percentage)” value in assay [7] is listed as 4. Besides, the “evaluation value of control effect (from control value, number of lesions)” value in assay [3], in assay [4] and in assay [6] was 5 throughout.
In the case of `CCc1nc(C(F)F)c(C(=O)N(C(=O)c2sc(C)nc2C(F)F)c2cccc3c2C(C)OC3(C)C)s1` (stereo not shown) [26-70], the “evaluation value of control effect (from control value, lesion height)” value in assay [1], in assay [2] and in assay [5] was 5 in each case. The “evaluation value of control effect (from control value, number of lesions)” value in assay [3], in assay [4] and in assay [6] was 5 throughout.
On to `CC1OC(C)(C)c2cccc(N(C(=O)c3cccnc3C(F)F)C(=O)c3cccc4nnsc34)c21` (stereo not shown) [27-28], for which the “evaluation value of control effect (from control value, lesion height)” value in assay [1], in assay [2] and in assay [5] was 5 throughout. Besides, the “evaluation value of control effect (from control value, number of lesions)” value in assay [3], in assay [4] and in assay [6] was 5 each time.
On to `Cc1nc(C(F)F)c(C(=O)N(C(=O)c2onc(Cl)c2Cl)c2cccc3c2C(C)OC3(C)C)s1` (stereo not shown) [26-92], for which the “evaluation value of control effect (from control value, lesion height)” value in assay [1], in assay [2] and in assay [5] was 5 each time. In addition, the “evaluation value of control effect (from control value, number of lesions)” value in assay [3], in assay [4] and in assay [6] was 5 throughout.
As for `CC1CC(C)(C)c2cccc(N(C(=O)c3cn(C)nc3C(F)F)C(=O)c3cccc4nnsc34)c21` (stereo not shown) [25-73], in assay [7], the “evaluation value of control effect (from control value, lesion area percentage)” value turned out to be 5. Moreover, the “evaluation value of control effect (from control value, number of lesions)” value in assay [3], in assay [4] and in assay [6] was 5 throughout.
As to `CCC(C)Oc1cccc(N(C(=O)c2sc(C)nc2C(F)F)C(=O)c2snc(Cl)c2Cl)c1C` (stereo not shown) [7-125], the “evaluation value of control effect (from control value, lesion area percentage)” value in assay [7] is 4. Further, the “evaluation value of control effect (from control value, number of lesions)” value in assay [3], in assay [4] and in assay [6] was 5 throughout.
On to `Cc1nc(C(F)F)c(C(=O)N(C(=O)c2cccc3nnsc23)c2ccccc2C(C)CC(C)C)s1` (stereo not shown) [7-200], for which, in assay [7], the “evaluation value of control effect (from control value, lesion area percentage)” value amounted to 4. For the same compound, the “evaluation value of control effect (from control value, number of lesions)” value in assay [3], in assay [4] and in assay [6] was 5 each time.
For `Cc1ncccc1C(=O)N(C(=O)c1snc(Cl)c1Cl)c1ccccc1C(C)CC(C)C` (stereo not shown) [13-52], the “evaluation value of control effect (from control value, lesion area percentage)” value in assay [7] worked out at 4. The “evaluation value of control effect (from control value, number of lesions)” value in assay [3], in assay [4] and in assay [6] was 5 in each case.

(Values after US20210007356A1, “IMIDE DERIVATIVE AND FUNGICIDE CONTAINING SAID DERIVATIVE AS ACTIVE INGREDIENT” (HOKKO CHEMICAL INDUSTRY CO., LTD., priority 2018, published 2021).)
